Data: US7407753B2, “Methods, kits and pharmaceutical compositions for diagnosing, delaying onset of, preventing and/or treating osteoporosis” (priority 2004, dated 2008)

Key:
[1] = test system: diaphyseal bone marrow derived stromal cells; experiment: cell count of bone marrow derived stromal cells (preosteoblasts) challenged with ligand; type: cell-based, mouse; settings: cells grown for 10 days in osteogenic medium; 48 hours incubation with ligand; FIG. 1f
Protocol: (§1) Cell cultures and mRNA analysis—Osteoclastogenic cultures of monocytes derived from femora and tibiae of WT C57BL/6J mice were set as previously reported (Zou, W., et al., 2002. FASEB J. 16: 274-282). After separation and prior to RNA extraction or cell counts the cells were cultured for 5 days in medium containing M-CSF and RANKL (R&D Systems Inc. Minneapolis, Minn.). Primary bone marrow stromal cell cultures from femoral diaphyseal bone marrow and the MC3T3 E1 cells were cultured as reported previously (Frenkel, B., et al., 1997. Endocrinology 138: 2109-2116; Bab, I., et al., 1992. EMBO J. 11: 1867-1873). The cells were grown in osteogenic medium containing ascorbic acid, β-glycerophophate and dexamethasone (Frenkel, B., et al., 1997. Endocrinology 138: 2109-2116).
(§2) In the cell count experiments, ligands were dissolved in dimethylsulfoxide and further diluted to their final concentration using tissue culture medium. For osteoclast counts the cultures were fixed in ethanol and TRAP-stained. […] The cells were then serum starved for 2 hours followed by 48 hours incubation in (α-MEM supplemented with 4% BSA and ligand. Cells were separated using chondroitinase and trypsin (Krebsbach, P. H., et al., 1998. Transplantation 66, 1272-1278) and counted with a hemocytometer in triplicate wells per condition.

[2] = test system: bone marrow derived osteoclastic cell system; experiment: count of TRAP-positive multinucleated osteoclasts in primary osteoclastogenic monocyte culture; type: cell-based, mouse; settings: osteoclastogenic monocyte culture with M-CSF and RANKL; FIG. 1g
Protocol: as §1, §2

OVX mice = experiment: ovariectomy (OVX)-induced femoral bone loss in sexually mature mice; type: in vivo, mouse; settings: C3H OVX mice, 10 mg/Kg/day subcutaneously for 4 weeks from time of operation; FIGS. 4a-g
Protocol: Ovariectomy (OVX) mice—C3H mice (Harlan, Israel) were subjected to an ovariectomy procedure. HU-308 was synthesized as described before [Hanus, L., et al. HU-308: a specific agonist for CB(2), a peripheral cannabinoid receptor. Proc. Natl. Acad. Sci. U.S.A. 96: 14228-142-33 (1999)] and was daily injected once subcutaneously as an ethanol/emulphor/saline (1:1:18) solution.
All reported animals received calcein flurochrome (Sigma), 15 mg/Kg intraperitoneally four days and one day prior to sacrifice. […]
Micro-computed tomography (μCT)—Whole femora were examined by μCT 40 (Scanco Medical, Bassersdorf, Switzerland). […] Trabecular bone parameters were measured in a metaphyseal segment, extending proximally from the proximal tip of the primary spongiosa to the proximal border of the distal femoral quartile. Cortical bone parameters were determined in a diaphyseal segment extending 1.12 mm distally from the midpoint between the femoral ends.
Histomorphometry and immunohistochemistry—After μCT image acquisition, the specimens were embedded undecalcified in Technovit 9100 (Heracus Kulzer, Wehrheim, Germany). […] Parameters were determined according to a standardized nomenclature [Parfitt, A. M., et al. Bone histomorphometry: standardization of nomenclature, symbols, and units. […]

[3] = test system: tissue non-specific alkaline phosphatase (TNSALP); experiment: TNSALP activity in the preosteoblastic stromal cell cultures; type: cell-based, mouse; settings: preosteoblastic stromal cell culture, early differentiation stage; data not shown
Protocol: as §1, §2

Structure (SMILES) | number of diaphyseal bone marrow derived stromal cells [1] | number of TRAP positive multinucleated cells [2] | ovariectomy (OVX)-induced femoral bone loss (OVX mice) | activity of the tissue non-specific alkaline phosphatase (TNSALP) [3]
CCCCC/C=C\C/C=C\C/C=C\C/C=C\CCCCOC(CO)CO [Noladin ether, 2-arachidonyl glyceryl ether] | no significant effect | – | – | –
CCCCCCC(C)(C)c1cc(OC)c([C@@H]2C=C(CO)[C@@H]3C[C@H]2C3(C)C)c(OC)c1 [HU-308] | potent increase | marked dose dependent decrease | attenuating | unaffected
